Tested on: Helicoverpa armigera larvae (third instar)
Assay: Bioassay of meroterpenoid using H. armigera larvae (cotton leaf dip feeding)
Assay type: in vivo
Conditions: for Mortality (%) / Survival (%): treated cotton leaves, recorded up to 6 days
Source text: The cotton Bollworm, Helicoverpa armigera is considered as one of the major threats to present day intensive agriculture. […] Cotton leaves were surface sterilized with 0.5% sodium hypochlorite, rinsed in sterile water and shade dried. The leaves were dipped in respective concentration of the insecticide for 30 seconds and then they were drained and dried at room temperature. The turgidity was maintained by surrounding the petiole with cotton wool saturated with water. The petioles of the leaves with cotton swab were kept immersed in water and were used control. The entire setup was kept enclosed in mylar film cage and Helicoverpa armigera larvae (third instar) of 30-40 milligrams weight were allowed to feed. Mortality rate was recorded at 24 hours intervals up to 6 days.

## COc1ccc(-c2cc3c(c(=O)o2)C[C@@]2(O)[C@@]4(C)C(=O)[C@@]5(OC)C(=O)O[C@]4(CC[C@@]2(C)O3)C5(C)C)cc1 [Terreulactone A, terreulactone A]
2.5 μg terreulactone A
  Mortality (%): 52.5%
  Survival (%): 47.5%
5.0 μg terreulactone A
  Mortality (%): 62.5%
  Survival (%): 37.5%
10 μg terreulactone A
  Mortality (%): 82.5%
  Survival (%): 17.5%
Larval pests fed on treated plant or plant parts
  mortality rate of the larval pests (in words): increased the mortality rate
